“And” between values parts separate entries of the source, which are not always exact repeats. Equal entries are not always repeated.
What was measured:
[1] = system: recombinant TEAD1 protein (194-411, Uniprot ID: P28347); experiment: Thermal shift assay (protein melting point curve), TEAD1; assay type: binding; parameters: key to the marks not given beside the values; settings: 10 μM TEAD protein, 50 μM test compound
Experimental: (§1) The ability of the compounds to increase the melting point of purified recombinant TEAD1/2/3/4 proteins is tested using a thermal shift assay. The strength of the compound's binding to the protein and the selectivity of the compound's binding to the four TEAD subtypes are evaluated by calculating the melting point shift ΔTm−° C. […] Based on the Δ Tm value, the ability of the compound to bind to the TEAD protein is divided into four levels: ++++, +++, ++, +.
(§2) Test method of protein melting point curve: 10 μL of the protein melting point curve experimental system (10 μM TEAD protein, 50 μM test compound, SYPRO® orange (55692, sigma)) is prepared in a 384-well fluorescence quantitative PCR plate according to the following system, and reacted at 4° C. in the dark for 20 minutes. On-machine reaction: ABI QuantStudio Dx fluorescence quantitative PCR instrument; program: from 25° C. to 80° C., increasing the temperature at a rate of 0.05° C./s, and reading the fluorescence channel signal of the corresponding wavelength of SYPRO® orange every second.

[2] = target: recombinant TEAD2 protein (218-447, Uniprot ID: Q15562) (Homo sapiens (Human), UniProt Q15562); experiment: Thermal shift assay (protein melting point curve), TEAD2; assay type: binding; settings: 10 μM TEAD protein, 50 μM test compound
Experimental: as §1, §2

[3] = target: recombinant TEAD3 protein (218-435, Uniprot ID: Q99594) (Homo sapiens (Human), UniProt Q99594); experiment: Thermal shift assay (protein melting point curve), TEAD3; assay type: binding; settings: 10 μM TEAD protein, 50 μM test compound
Experimental: as §1, §2

[4] = target: recombinant TEAD4 protein (217-434, Uniprot ID: Q15561) (Homo sapiens (Human), UniProt Q15561); experiment: Thermal shift assay (protein melting point curve), TEAD4; assay type: binding; settings: 10 μM TEAD protein, 50 μM test compound
Experimental: as §1, §2

[5] = target: recombinant TEAD1 protein central pocket (Homo sapiens (Human), UniProt P28347); experiment: Competitive thiol binding assay (CPM assay), TEAD1; settings: 150 nM recombinant TEAD protein, 150 nM CPM
Experimental: (§3) Diluting the tested compound in gradient to 5 uL with buffer (25 mM HEPES, 150 mM NaCl, pH6.5), then adding 5 μL of the newly prepared 0.45 uM recombinant TEAD protein solution, and incubating at room temperature for 10 minutes. […] After shaking the plate at room temperature for 1 hour, measuring the fluorescence intensity (Ex/Em: 380/470 nm).

[6] = target: recombinant TEAD4 protein central pocket (Homo sapiens (Human), UniProt Q15561); experiment: Competitive thiol binding assay (CPM assay), TEAD4; settings: 150 nM recombinant TEAD protein, 150 nM CPM
Experimental: as §3

Caco-2 cells = experiment: Permeability test on Caco2 cells; assay type: in vitro ADME
Experimental: After resuscitation, the Caco-2 cells are transferred to a conventional culture dish and cultured in a high-glucose DMEM medium (containing 10% FBS) at 37° C. and 5% CO2 in an incubator. When the cells cover 80% to 95% of the bottom of the dish, they are digested with trypsin containing 0.25% EDTA to disperse them into a single cell suspension, and the cell concentration is determined using a cell counter, after that, the concentration of the cell suspension is adjusted to 2 to 2.5×10^5/mL with fresh culture medium and inoculated into a Transwell polycarbonate membrane 12-well plate, the fresh culture medium is replaced every two days in the first two weeks and once a day in the last week, the culture is continued for 19 to 21 days to obtain a fully differentiated single cell layer.

Chain of recombinant TEAD2 protein (218-447, Uniprot ID: Q15562) (Q15562 218-447): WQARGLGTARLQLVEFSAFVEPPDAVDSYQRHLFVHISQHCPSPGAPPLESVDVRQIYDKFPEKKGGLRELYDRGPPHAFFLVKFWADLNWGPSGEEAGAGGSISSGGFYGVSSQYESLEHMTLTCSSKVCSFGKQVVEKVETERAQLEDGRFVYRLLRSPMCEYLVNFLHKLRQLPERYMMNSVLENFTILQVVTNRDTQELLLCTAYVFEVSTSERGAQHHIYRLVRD
Chain of recombinant TEAD3 protein (218-435, Uniprot ID: Q99594) (Q99594 218-435): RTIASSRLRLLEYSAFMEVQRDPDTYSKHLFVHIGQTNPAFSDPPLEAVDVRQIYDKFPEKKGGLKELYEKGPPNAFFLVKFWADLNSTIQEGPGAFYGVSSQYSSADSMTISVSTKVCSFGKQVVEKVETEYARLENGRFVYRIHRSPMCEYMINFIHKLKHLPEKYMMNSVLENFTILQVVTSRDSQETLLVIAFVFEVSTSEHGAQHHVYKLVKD
Chain of recombinant TEAD4 protein (217-434, Uniprot ID: Q15561) (Q15561 217-434): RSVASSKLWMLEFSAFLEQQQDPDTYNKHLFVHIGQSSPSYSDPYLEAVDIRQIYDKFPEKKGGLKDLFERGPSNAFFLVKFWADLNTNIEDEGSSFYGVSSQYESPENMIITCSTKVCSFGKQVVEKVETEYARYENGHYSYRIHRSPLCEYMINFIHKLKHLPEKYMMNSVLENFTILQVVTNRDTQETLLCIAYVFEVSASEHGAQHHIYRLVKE
Chain of recombinant TEAD4 protein central pocket (Q15561 whole entry): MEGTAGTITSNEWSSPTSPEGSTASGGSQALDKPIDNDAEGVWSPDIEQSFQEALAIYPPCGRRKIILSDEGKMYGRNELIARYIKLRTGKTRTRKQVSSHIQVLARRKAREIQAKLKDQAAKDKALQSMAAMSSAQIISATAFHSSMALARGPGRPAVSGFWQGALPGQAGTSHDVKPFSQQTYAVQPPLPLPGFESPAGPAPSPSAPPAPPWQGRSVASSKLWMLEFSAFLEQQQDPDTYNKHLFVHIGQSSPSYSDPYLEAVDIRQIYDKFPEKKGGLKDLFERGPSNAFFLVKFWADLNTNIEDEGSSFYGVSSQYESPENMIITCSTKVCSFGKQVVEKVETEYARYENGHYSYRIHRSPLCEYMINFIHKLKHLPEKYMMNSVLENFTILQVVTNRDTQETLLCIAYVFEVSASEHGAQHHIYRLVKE
Chain of recombinant TEAD1 protein central pocket (P28347 whole entry): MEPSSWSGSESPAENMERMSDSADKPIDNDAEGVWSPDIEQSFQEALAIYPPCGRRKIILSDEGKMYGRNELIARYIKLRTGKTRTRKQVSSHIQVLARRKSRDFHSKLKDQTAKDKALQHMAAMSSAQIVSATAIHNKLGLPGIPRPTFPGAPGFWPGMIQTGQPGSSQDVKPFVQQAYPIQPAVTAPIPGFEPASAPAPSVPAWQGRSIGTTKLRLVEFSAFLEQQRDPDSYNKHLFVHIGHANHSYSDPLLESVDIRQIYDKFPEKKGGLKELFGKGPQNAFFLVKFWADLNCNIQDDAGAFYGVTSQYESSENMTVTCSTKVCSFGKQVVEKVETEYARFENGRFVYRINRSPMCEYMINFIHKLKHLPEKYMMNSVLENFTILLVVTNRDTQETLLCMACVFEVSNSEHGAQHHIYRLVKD

Compound | Δ T m (TEAD2) [2] | Δ T m (TEAD3) [3] | Δ T m (TEAD4) [4] | IC50 [5] [nM] | IC50 [6] [nM] | Papp average value (Caco-2 cells; AP→BL, n = 2) | Papp (Caco-2 cells; AP→BL, single replicate) | Receiving chamber concentration Area ratio/OD (Caco-2 cells; AP→BL, single replicate) | Penetration Type (Caco-2 cells; Caco2 cell model) | Δ T m (TEAD1) [1]
CP(C)(=O)c1ccc(NC2CCC(F)(F)CC2)c(-c2nccc(OC3COC3)n2)c1 [Compound 30] | + | + | ++ | 690 | 810 |  |  |  |  | +++
CNC(=C[N+](=O)[O-])NCCSCc1ccc(CN(C)C)o1 [ranitidine] |  |  |  |  |  | 1.84 10^−6 cm/s | 1.99 10^−6 cm/s and 1.69 10^−6 cm/s | 3.32 and 2.82 | Medium | 
CP(C)(=O)c1cc(-c2nccc(OC3COC3)n2)c(Nc2ccc(C(F)(F)F)cc2)s1 [Compound 24] | ++ | + | ++++ | 180 | 290 |  |  |  |  | ++++
CP(C)(=O)c1ccc(Nc2ccc(S(F)(F)(F)(F)F)cc2)c(-c2nccc(OC3COC3)n2)c1 [Compound 74] | + | + | ++++ | 190 | 210 |  |  |  |  | ++++
Cc1nnc(-c2cc(P(C)(C)=O)ccc2Nc2ccc(C(F)(F)F)cc2)o1 [Compound 69] | + | ++ | ++ |  |  |  |  |  |  | ++
CP(C)(=O)c1ccc(Nc2ccc(C(F)(F)F)cc2)c(-c2cn(C3COC3)cn2)c1 [Compound 70] | ++ | + | ++ |  |  |  |  |  |  | ++
CP(C)(=O)c1ccc(NCc2cc(F)cc(F)c2)c(-c2nccc(OC3COC3)n2)c1 [Compound 62] | + | + | + |  |  |  |  |  |  | ++
CP(C)(=O)c1ccc(NC2CCc3cc(C(F)(F)F)ccc32)c(-c2ncccn2)c1 (centres unmarked) [Compound 42] | ++ | + | + |  |  |  |  |  |  | ++
CP(C)(=O)c1ccc(Nc2ccc(C(F)(F)F)cc2)c(-c2csc(OC3COC3)n2)c1 [Compound 71] | + | + | ++ |  |  |  |  |  |  | ++
Cc1nc(-c2cc(P(C)(C)=O)ccc2NCc2ccc(C(F)(F)F)cc2)no1 [Compound 5] | +++ | ++ | ++++ |  |  |  |  |  |  | ++++
CP(C)(=O)c1ccc(OCc2ccc(C(F)(F)F)cc2)c(-c2nccc(OC3COC3)n2)c1 [Compound 20] | ++ | ++ | ++ |  |  |  |  |  |  | +++
O=P1(c2ccc(Nc3ccc(C(F)(F)F)cc3)c(-c3nccc(OC4COC4)n3)c2)CCNCC1 [Compound 60] | + | + | ++ |  |  |  |  |  |  | +++
CP(C)(=O)c1ccc(Nc2ccc(C(F)(F)F)cc2)c(-c2ccn(C3CCOCC3)n2)c1 [Compound 25] | ++ | ++ | ++ |  |  |  |  |  |  | ++
COCc1cccn(-c2cc(P(C)(C)=O)ccc2Nc2ccc(C(F)(F)F)cc2)c1=O [Compound 48] | + | + | + |  |  |  |  |  |  | ++

Continued, in another order:

Δ T m (TEAD2) [2] | Δ T m (TEAD3) [3] | Δ T m (TEAD4) [4] | IC50 [5] [nM] | IC50 [6] [nM] | Papp average value (Caco-2 cells; AP→BL, n = 2) | Papp (Caco-2 cells; AP→BL, single replicate) | Receiving chamber concentration Area ratio/OD (Caco-2 cells; AP→BL, single replicate) | Penetration Type (Caco-2 cells; Caco2 cell model) | Compound | Δ T m (TEAD1) [1]
++ | ++ | +++ |  |  |  |  |  |  | CP(C)(=O)c1ccc(Nc2ccc(C(F)(F)F)cc2)c(-c2cnn(C3COC3)c2)c1 [Compound 15] | +++
+ | + | +++ | 160 | 210 |  |  |  |  | CP(C)(=O)c1ccc(Nc2ccc(C(F)(F)F)cc2)c(-c2nccc(OC3CCOC3)n2)c1 (centres unmarked) [Compound 18] | ++++
++ | + | +++ |  |  |  |  |  |  | CP(C)(=O)c1ccc(Nc2cccc(OC(F)(F)F)c2)c(-c2nccc(OC3COC3)n2)c1 [Compound 67] | +++
++ | + | ++ |  |  |  |  |  |  | CP(C)(=O)c1ccc(NCc2cc(F)cc(F)c2)c(-c2ncccn2)c1 [Compound 44] | ++
+++ | + | +++ |  |  |  |  |  |  | Cn1cnc(-c2cc(P(C)(C)=O)ccc2NC2CCC(C(F)(F)F)CC2)c1 (centres unmarked) [Compound 63] | ++++
+ | + | ++ |  |  |  |  |  |  | CP(C)(=O)c1ccc(NCc2ccc(C(F)(F)F)cc2)c(-c2ncn(C3CCOCC3)n2)c1 [Compound 55] | ++
+ | + | +++ |  |  |  |  |  |  | CP(C)(=O)c1ccc(Nc2ccc(C(F)(F)F)cc2)c(-c2nccc(OC3COC3)c2C#N)c1 [Compound 36] | ++
++ | ++ | ++ |  |  |  |  |  |  | CP(C)(=O)c1ccc(Nc2ccc(C(F)(F)F)cc2)c(-c2cnn(C3CCOCC3)c2)c1 [Compound 51] | ++
+ | ++ | ++ |  |  |  |  |  |  | CP(C)(=O)c1ccc(NCc2ccc(C(F)(F)F)cc2)c(-c2cn(C3COC3)cn2)c1 [Compound 47] | +++
+ | + | + |  |  |  |  |  |  | CP(C)(=O)c1ccc(Nc2ccc(C(F)(F)F)cc2)c(-c2nnc(COC3COC3)o2)c1 [Compound 57] | ++
+ | + | ++ |  |  |  |  |  |  | CP(C)(=O)c1ccc(NCc2ccc(C(F)(F)F)cc2)c(-c2nccc(N3CCC(O)C3)n2)c1 (centres unmarked) [Compound 54] | ++
+ | ++ | ++ |  |  |  |  |  |  | CP(C)(=O)c1ccc(Nc2ccc(C(F)(F)F)cc2)c(-c2cn(Cc3ccccn3)cn2)c1 [Compound 2] | +++
+ | + | + |  |  |  |  |  |  | CP(C)(=O)c1ccc(Nc2ccc(C(F)(F)F)cc2)c(-c2nnc(NCCO)o2)c1 [Compound 12] | ++
+ | + | ++++ | 140 |  |  |  |  |  | CCP(=O)(CC)c1ccc(Nc2ccc(C(F)(F)F)cc2)c(-c2nccc(OC3COC3)n2)c1 [Compound 66] | ++++
+ | + | ++ |  |  |  |  |  |  | CP(C)(=O)c1ccc(Nc2ccc(C(F)(F)F)cc2)c(-c2ncn(C3CCOCC3)n2)c1 [Compound 34] | ++
+ | ++ | ++ |  |  |  |  |  |  | Cc1nc(-c2cc(P(C)(C)=O)ccc2NCc2cccc(C(F)(F)F)c2)no1 [Compound 49] | +++
+ | + | +++ |  |  |  |  |  |  | CP(C)(=O)c1ccc(NC23CCC(CC2)CC3)c(-c2nccc(OC3COC3)n2)c1 [Compound 38] | +++
++ | + | ++ |  |  |  |  |  |  | CP(C)(=O)c1ccc(NCc2cccc(C(F)(F)F)c2)c(-c2nccc(OC3COC3)n2)c1 [Compound 52] | ++
